According to article PMC11844072, “Novel 5,6-dichlorobenzimidazole derivatives as dual BRAFWT and BRAFV600E inhibitors: design, synthesis, anti-cancer activity and molecular dynamics simulations” (BMC Chemistry, 2025):

How the values were obtained:
COLO 205 = assay: NCI 60 single concentration growth inhibition; type: cell-based, human; settings: Homo sapiens, COLO 205, Colon cancer, read-out: GI%
Method: (§1) The synthesized dichlorobenzimidazoles 10a–p were assayed for their influence on divers cancer cell lines according to the method presented in the Additional file A.
(§2) 5. Screening of cytotoxic activity against a panel of sixty human tumor cell lines
(§3) The selected compounds by NCI were evaluated for their anticancer activity in a two-stage process. First, these compounds were screened against the full NCI 60 cell lines panel at a single high dose of 10 µM. Then, the output from the single dose screen is reported as a mean graph. […]
(§4) Assay protocol. The human tumor cell lines of the cancer screening panel are grown in RPMI 1640 medium containing 5% fetal bovine serum and 2 mM L-glutamine. For a typical screening experiment, cells are inoculated into 96 well microtiter plates in 100 µL at plating densities ranging from 5000 to 40,000 cells/well depending on the doubling time of individual cell lines. After cell inoculation, the microtiter plates are incubated at 37 °C, 5% CO 2, 95% air and 100% relative humidity for 24 h prior to addition of the experimental drugs.
(§5) After 24 h, two plates of each cell line are fixed in situ with TCA, to represent a measurement of the cell population for each cell line at the time of drug addition (Tz). The experimental drugs are solubilized in dimethyl sulfoxide at 400-fold the desired final maximum test concentration and stored frozen prior to use. At the time of drug addition, an aliquot of frozen concentrate is thawed and diluted to twice the desired final maximum test concentration with complete medium containing 50 µg/mL gentamicin. Additional four, 10-fold or ½ log serial dilutions are made to provide a total of five drug concentrations plus control.
(§6) Aliquots of […] of these different drug dilutions are added to the appropriate microtiter wells already containing […] of medium, resulting in the required final drug concentrations.
(§7) Following drug addition, the plates are incubated for an additional 48 h at 37 °C, 5% CO 2, 95% air, and 100% relative humidity. For adherent cells, the assay is terminated by the addition of cold TCA.
(§8) Cells are fixed in situ by the gentle addition of 50 µL of cold 50% (w/v) TCA (final concentration, 10% TCA) and incubated for 60 min at 4 °C. The supernatant is discarded, and the plates are washed five times with tap water and air dried. Sulforhodamine B (SRB) solution ([…]) at 0.4% (w/v) in 1% acetic acid is added to each well, and plates are incubated for 10 min at room temperature. After staining, unbound dye is removed by washing five times with 1% acetic acid and the plates are air dried. Bound stain is subsequently solubilized with 10 mM trizma base, and the absorbance is read on an automated plate reader at a wavelength of 515 nm. For suspension cells, the methodology is […]
(§9) the same except that the assay is terminated by fixing settled cells at the bottom of the wells by gently adding 50 µl of 80% TCA (final concentration, 16% TCA). Using the seven absorbance measurements [time zero, (Tz), control growth, (C), and test growth in the presence of drug at the five concentration levels (Ti)], the percentage growth is calculated at each of the drug concentrations […]
(§10) Percentage growth inhibition is calculated as: [(Ti Tz)/(C–Tz)] x 100 for concentrations for which Ti>/=Tz and [(Ti-Tz)/Tz] x 100 for concentrations for which Ti < Tz. […]
(§11) Results for each compound were reported as a mean graph of the percent growth of the treated cells when compared to the untreated control cells. There after obtaining the results for one dose assay, analysis of historical Development Therapeutics Programme (DTP) was performed and compounds which satisfies predetermined threshold inhibition criteria is selected for NCI full panel 5 dose assay.

DU-145 = assay: NCI 60 single concentration growth inhibition; type: cell-based, human; settings: Homo sapiens, DU-145, Prostate cancer, read-out: GI%
Method: as §1, §2, §3, §4, §5, §6, §7, §8, §9, §10, §11

HCC-2998 = assay: NCI 60 single concentration growth inhibition; type: cell-based, human; settings: Homo sapiens, HCC-2998, Colon cancer, read-out: GI%
Method: as §1, §2, §3, §4, §5, §6, §7, §8, §9, §10, §11

HCT-15 = assay: NCI 60 single concentration growth inhibition; type: cell-based, human; settings: Homo sapiens, HCT-15, Colon cancer, read-out: GI%
Method: as §1, §2, §3, §4, §5, §6, §7, §8, §9, §10, §11

HOP-92 = assay: NCI 60 single concentration growth inhibition; type: cell-based, human; settings: Homo sapiens, HOP-92, Non-small cell lung cancer, read-out: GI%
Method: as §1, §2, §3, §4, §5, §6, §7, §8, §9, §10, §11

HT29 = assay: NCI 60 single concentration growth inhibition; type: cell-based, human; settings: Homo sapiens, HT-29, HT29, Colon cancer, read-out: GI%
Method: as §1, §2, §3, §4, §5, §6, §7, §8, §9, §10, §11

K-562 = assay: NCI 60 single concentration growth inhibition; type: cell-based, human; settings: Homo sapiens, K562, K-562, Leukemia, read-out: GI%
Method: as §1, §2, §3, §4, §5, §6, §7, §8, §9, §10, §11

LOX IMVIL = assay: NCI 60 single concentration growth inhibition; type: cell-based, human; settings: Homo sapiens, Melanoma, read-out: GI%
Method: as §1, §2, §3, §4, §5, §6, §7, §8, §9, §10, §11

NCI-H460 = assay: NCI 60 single concentration growth inhibition; type: cell-based, human; settings: Homo sapiens, NCI-H460, Non-small cell lung cancer, read-out: GI%
Method: as §1, §2, §3, §4, §5, §6, §7, §8, §9, §10, §11

NCI-H522 = assay: NCI 60 single concentration growth inhibition; type: cell-based, human; settings: Homo sapiens, NCI-H522, Non-small cell lung cancer, read-out: GI%
Method: as §1, §2, §3, §4, §5, §6, §7, §8, §9, §10, §11

NCI/ADR-RES = assay: NCI 60 single concentration growth inhibition; type: cell-based, human; settings: Homo sapiens, Ovarian cancer, read-out: GI%
Method: as §1, §2, §3, §4, §5, §6, §7, §8, §9, §10, §11

OVCAR-3 = assay: NCI 60 single concentration growth inhibition; type: cell-based, human; settings: Homo sapiens, OVCAR-3, Ovarian cancer, read-out: GI%
Method: as §1, §2, §3, §4, §5, §6, §7, §8, §9, §10, §11

OVCAR-4 = assay: NCI 60 single concentration growth inhibition; type: cell-based, human; settings: Homo sapiens, OVCAR-4, Ovarian cancer, read-out: GI%
Method: as §1, §2, §3, §4, §5, §6, §7, §8, §9, §10, §11

SNB-19 = assay: NCI 60 single concentration growth inhibition; type: cell-based, human; settings: Homo sapiens, SNB-19, CNS cancer, read-out: GI%
Method: as §1, §2, §3, §4, §5, §6, §7, §8, §9, §10, §11

SW-620 = assay: NCI 60 single concentration growth inhibition; type: cell-based, human; settings: Homo sapiens, SW-620, Colon cancer, read-out: GI%
Method: as §1, §2, §3, §4, §5, §6, §7, §8, §9, §10, §11

TK-10 = assay: NCI 60 single concentration growth inhibition; type: cell-based, human; settings: Homo sapiens, TK-10, Renal cancer, read-out: GI%
Method: as §1, §2, §3, §4, §5, §6, §7, §8, §9, §10, §11

U251 = assay: NCI 60 single concentration growth inhibition; type: cell-based, human; settings: Homo sapiens, U-251, U251, CNS cancer, read-out: GI%
Method: as §1, §2, §3, §4, §5, §6, §7, §8, §9, §10, §11

[1] = test system: NCI 60 cancer cell line panel; assay: NCI 60 single concentration growth inhibition, panel mean; type: cell-based; settings: Homo sapiens, mean over NCI 60 panel, read-out: Mean GI%
Method: as §1, §2, §3
at five different minimal concentrations.
as §4, §5, §6, §7, §8, §9
Percentage growth inhibition is calculated as: [(Ti Tz)/(C–Tz)] x 100 for concentrations for which Ti>/=Tz and [(Ti-Tz)/Tz] x 100 for concentrations for which Ti < Tz.
Three dose response parameters are calculated for each experimental agent. Growth […]
concentration resulting in a 50% reduction in the net protein increase (as measured by SRB staining) in control cells during the drug incubation. The drug concentration resulting in total growth inhibition (TGI) is calculated from Ti = Tz. […]
reduction in the measured protein at the end of the drug treatment as compared to that at the beginning) indicating a net loss of cells following treatment is calculated from [(Ti–Tz)/Tz] x 100 =
_50. Values are calculated for each of these three parameters if the level of activity is reached; […]

Compound | inhibition at 10 µM (COLO 205) [%] | inhibition at 10 µM (DU-145) [%] | inhibition at 10 µM (HCC-2998) [%] | inhibition at 10 µM (HCT-15) [%] | inhibition at 10 µM (HOP-92) [%] | inhibition at 10 µM (HT29) [%] | inhibition at 10 µM (K-562) [%] | inhibition at 10 µM (LOX IMVIL) [%] | inhibition at 10 µM (NCI-H460) [%] | inhibition at 10 µM (NCI-H522) [%] | inhibition at 10 µM (NCI/ADR-RES) [%] | inhibition at 10 µM (OVCAR-3) [%] | inhibition at 10 µM (OVCAR-4) [%] | inhibition at 10 µM (SNB-19) [%] | inhibition at 10 µM (SW-620) [%] | inhibition at 10 µM (TK-10) [%] | inhibition at 10 µM (U251) [%] | inhibition at 10 µM [1] [%]
COC(=O)COc1ccc(C=NNC(=O)Cn2c(-c3ccc(OC)cc3)nc3cc(Cl)c(Cl)cc32)cc1 [Compound 10h, Methyl-2-(4-((2-(2-(5,6-dichloro-2-(4-methoxyphenyl)-1H-benzo[d]imidazol-1-yl)acetyl)hydrazono)methyl)phenoxy)acetate] | 51.5 | 158 | 142 | 40.3 | 7.02 | 93.4 | 31.4 | 39.5 | < 5 | 7.31 | < 5 | 93 | < 5 | 8.19 | < 5 | < 5 | 10.1 | 36.6
CCOC(=O)C(C)Oc1ccc(C=NNC(=O)Cn2c(-c3ccc(OC)cc3)nc3cc(Cl)c(Cl)cc32)cc1 (stereo not drawn) [Compound 10j, Ethyl-2-(4-((2-(2-(5,6-dichloro-2-(4-methoxyphenyl)-1H-benzo[d]imidazol-1-yl)acetyl) hydrazono)methyl)phenoxy)propanoate] | 8.58 | 85.2 | 15.4 | 37.1 | 15.2 | 39.2 | 41.3 | 18.4 | < 5 | 32.6 | < 5 | < 5 | 9.77 | 11.2 | < 5 | < 5 | 5.26 | 18.4
COc1ccc(-c2nc3cc(Cl)c(Cl)cc3n2CC(=O)NN=Cc2ccc(OC)c(O)c2)cc1 [Compound 10k, 2-(5,6-Dichloro-2-(4-methoxyphenyl)-1H-benzo[d]imidazol-1-yl)-N'-(3-hydroxy-4-methoxybenzylidene)acetohydrazide] | 22.1 | 26.4 | 32.2 | 47.2 | 12 | 30.2 | 59.9 | 38.4 | 24.8 | 37.8 | 40.1 | 23.3 | 47.3 | 40.3 | 6.39 | 28 | 38 | 35.4
COc1ccc(-c2nc3cc(Cl)c(Cl)cc3n2CC(=O)NN=Cc2ccc(O)c(OC)c2)cc1 [Compound 10l, 2-(5,6-Dichloro-2-(4-methoxyphenyl)-1H-benzo[d]imidazol-1-yl)-N'-(4-hydroxy-3-methoxybenzylidene)acetohydrazide] | < 5 | 31.8 | 18.2 | 51.5 | 40.1 | 13 | 58.1 | 38.5 | 31 | 23.5 | 38.4 | 28.7 | 52.9 | 37.3 | 9.29 | 16.2 | 25.8 | 34.6
COC(=O)COc1cc(C=NNC(=O)Cn2c(-c3ccc(OC)cc3)nc3cc(Cl)c(Cl)cc32)ccc1OC [Compound 10o, Methyl-2-(5-((2-(2-(5,6-dichloro-2-(4-methoxyphenyl)-1H-benzo[d]imidazol-1-yl)acetyl)hydrazono)methyl)-2-methoxyphenoxy)acetate] | < 5 | 155 | 83.8 | 23.6 | 29.1 | 90.3 | 23.6 | 36.4 | < 5 | 32.7 | 11.1 | < 5 | 18 | < 5 | < 5 | < 5 | 6.53 | 34.6
